Source: patent US12121505B2, “Fap-activated therapeutic agents, and uses related thereto” (BACH BIOSCIENCES, LLC, priority 2014, dated 2024)
Read-outs that look alike come from different tables or passages of the source. Values belong to the molecule of their own block, whether it stands above or below them.

Legend:
DPPIV = DPPIV (Homo sapiens, UniProt P27487); test: In vitro DPPIV inhibition assay; format: biochemical
PREP [1] = target: T1, PREP (Homo sapiens, UniProt P48147); test: In vitro PREP inhibition assay; format: biochemical
T1 sequence (P48147 1-710): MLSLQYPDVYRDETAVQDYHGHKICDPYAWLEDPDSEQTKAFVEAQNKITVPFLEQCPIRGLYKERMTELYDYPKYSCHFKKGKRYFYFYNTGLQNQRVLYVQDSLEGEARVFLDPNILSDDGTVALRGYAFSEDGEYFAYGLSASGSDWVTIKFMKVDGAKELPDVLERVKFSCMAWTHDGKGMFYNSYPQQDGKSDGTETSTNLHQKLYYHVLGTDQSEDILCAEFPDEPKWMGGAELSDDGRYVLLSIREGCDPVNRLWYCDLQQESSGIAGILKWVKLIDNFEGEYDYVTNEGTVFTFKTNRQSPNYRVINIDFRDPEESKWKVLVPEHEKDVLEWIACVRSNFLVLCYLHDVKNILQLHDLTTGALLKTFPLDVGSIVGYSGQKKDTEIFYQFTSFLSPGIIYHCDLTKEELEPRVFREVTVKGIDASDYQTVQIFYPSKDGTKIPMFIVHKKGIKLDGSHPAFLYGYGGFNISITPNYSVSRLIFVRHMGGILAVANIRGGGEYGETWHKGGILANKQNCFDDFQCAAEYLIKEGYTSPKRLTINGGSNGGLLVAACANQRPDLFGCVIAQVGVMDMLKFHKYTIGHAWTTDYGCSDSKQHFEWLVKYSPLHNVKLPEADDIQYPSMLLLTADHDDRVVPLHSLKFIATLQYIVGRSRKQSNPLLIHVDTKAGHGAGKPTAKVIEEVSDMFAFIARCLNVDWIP

DPP9 = DPP9 (Homo sapiens, UniProt Q86TI2); test: In vitro DPP9 inhibition assay; format: biochemical
FAP [2] = target: T2, FAP (Homo sapiens, UniProt Q12884); test: In vitro FAP inhibition assay; format: biochemical
T2 sequence (Q12884 1-760): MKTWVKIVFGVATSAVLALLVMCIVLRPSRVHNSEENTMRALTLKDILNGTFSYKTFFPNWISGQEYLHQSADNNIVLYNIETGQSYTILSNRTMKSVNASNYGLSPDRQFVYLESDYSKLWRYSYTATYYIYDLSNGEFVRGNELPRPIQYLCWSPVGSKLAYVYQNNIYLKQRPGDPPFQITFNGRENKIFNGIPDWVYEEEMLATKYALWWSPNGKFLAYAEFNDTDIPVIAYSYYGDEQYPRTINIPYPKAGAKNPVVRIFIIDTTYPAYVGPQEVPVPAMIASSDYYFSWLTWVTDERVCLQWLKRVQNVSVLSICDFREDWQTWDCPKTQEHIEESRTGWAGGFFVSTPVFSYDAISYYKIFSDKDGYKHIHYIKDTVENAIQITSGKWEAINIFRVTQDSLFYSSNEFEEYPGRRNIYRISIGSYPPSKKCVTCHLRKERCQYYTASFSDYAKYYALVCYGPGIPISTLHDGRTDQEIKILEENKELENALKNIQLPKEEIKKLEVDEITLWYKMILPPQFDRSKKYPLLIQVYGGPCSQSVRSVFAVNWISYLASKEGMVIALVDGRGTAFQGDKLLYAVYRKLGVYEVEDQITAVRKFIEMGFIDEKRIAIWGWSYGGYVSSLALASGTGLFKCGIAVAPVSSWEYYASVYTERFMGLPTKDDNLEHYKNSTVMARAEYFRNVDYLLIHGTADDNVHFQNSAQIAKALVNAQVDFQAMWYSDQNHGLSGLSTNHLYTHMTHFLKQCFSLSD

DPPII = DPPII (Homo sapiens, UniProt Q9UHL4); test: In vitro DPPII inhibition assay; format: biochemical
DPP8 = DPP8 (Homo sapiens, UniProt Q6V1X1); test: In vitro DPP8 inhibition assay; format: biochemical
[3] = 100 μM prodrug, 37° C., 12 h
[4] = target: dipeptidyl peptidase IV (DPP IV) (Homo sapiens, UniProt P27487); test: Specificity of activation: 24 h digestion with DPP IV; format: biochemical; settings: 100 μM prodrug, 37° C.
Protocol: (§1) Total doxorubicin was measured for each assay.

FAP [5] = target: T2, FAP; test: Specificity of activation: 24 h digestion with FAP; format: biochemical; settings: 100 μM prodrug, 37° C.
Protocol: as §1

PREP [6] = target: T1, PREP; test: Specificity of activation: 24 h digestion with PREP; format: biochemical; settings: 100 μM prodrug, 37° C.
Protocol: as §1

FAP [7] = target: T2, FAP; test: Selectivity of FAP over PREP (5057DOX digest, LCMS); format: biochemical; settings: FIG. 14; 240 nM 5057DOX, 12, 24 or 48 nM enzyme, 37° C.
Protocol: Recombinant enzyme (FAP or PREP) was combined, at reaction concentration of 12 nM, 24 nM, or 48 nM, with 240 nM 5057DOX in FAP buffer (50 mM Tris-HCl, pH 7.4, 140 mM NaCl) and incubated at 37° C. Reactions were stopped at 0, 10, 20, or 30 minutes by addition of equal volume of 10 μM Val-boroPro (FAP inhibitor). Doxorubicin was measured by liquid chromatography/mass spectroscopy (LCMS).

FAP [8] = target: T2, FAP; test: FAP digest of 5057DOX (kinetics); format: biochemical
PREP [9] = target: T1, PREP; format: biochemical; settings: 1.34×10^−8 M PREP, 37° C.
Protocol: (§2) 3099DOX at various concentrations ranging from 8.5×10^−6 M to 6.9×10^−4 M was incubated with 1.34×10^−8 M FAP or PREP at 37° C., and released doxorubicin measured.

FAP [10] = target: T2, FAP; test: Rate of recombinant FAP activity on doxorubicin prodrugs; settings: 37° C.
FAP [11] = target: T2, FAP; format: biochemical; settings: 1.34×10^−8 M FAP, 37° C.
Protocol: Michaelis-Menten enzyme kinetics for FAP were measured using a SpectraMax M2e microplate reader (Molecular Devices, Sunnyvale, CA, USA). The assays were performed in FAP buffer (50 mM […], 140 mM NaCl, pH 7.5) at 25° C., and the fluorescence continuously monitored at excitation and emission wavelengths of 380 and 460 nm, respectively. Kinetic constants (kcat and Km) were determined using GP-AMC (Bachem, Torrance, CA, USA), Ac-(D)-AP-AFC (MP Biomedicals, Solon, OH, USA) and test article concentrations equivalent to 0.1-5 times their respective Km values, and with 5-10 nM enzyme. All assays were performed in triplicate, and the results were calculated with a nonlinear regression analysis, relying on a Michaelis-Menten curve fit using GraphPad software.
as §2

[12] = format: physicochemical
Protocol: • (i) LCMS of compound 3099DOX. • 0-3 min: 2% B; 3-20 min: 2-98% B; 20-25 min: 98% B. • Ran with 1.8 μm particle size column on the Old LCMS. • Calc.

Chain of dipeptidyl peptidase IV (DPP IV) (P27487 whole entry, species assumed): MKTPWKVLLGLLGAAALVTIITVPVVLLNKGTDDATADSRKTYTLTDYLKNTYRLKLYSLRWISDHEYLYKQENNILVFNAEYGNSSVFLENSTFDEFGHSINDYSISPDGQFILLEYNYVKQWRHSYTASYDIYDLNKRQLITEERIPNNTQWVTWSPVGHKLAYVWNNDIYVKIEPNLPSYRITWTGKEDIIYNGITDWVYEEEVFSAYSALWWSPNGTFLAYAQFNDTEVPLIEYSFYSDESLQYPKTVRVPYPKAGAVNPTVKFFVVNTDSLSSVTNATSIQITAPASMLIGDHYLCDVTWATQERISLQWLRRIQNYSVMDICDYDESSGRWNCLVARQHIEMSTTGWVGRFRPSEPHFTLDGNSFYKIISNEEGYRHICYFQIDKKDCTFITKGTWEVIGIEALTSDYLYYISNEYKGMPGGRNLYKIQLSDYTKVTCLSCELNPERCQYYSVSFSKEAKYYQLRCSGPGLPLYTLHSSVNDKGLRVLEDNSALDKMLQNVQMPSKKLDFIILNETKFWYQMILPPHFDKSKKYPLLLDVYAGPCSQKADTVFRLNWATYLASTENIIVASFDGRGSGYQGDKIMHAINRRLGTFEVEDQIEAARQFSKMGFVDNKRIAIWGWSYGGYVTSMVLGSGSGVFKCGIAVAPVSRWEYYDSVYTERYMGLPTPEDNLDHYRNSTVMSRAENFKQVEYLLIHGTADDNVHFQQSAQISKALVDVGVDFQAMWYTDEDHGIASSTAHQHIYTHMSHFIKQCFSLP
Chain of DPPIV (P27487 whole entry, species assumed): as above
Chain of DPP9 (Q86TI2 whole entry, species assumed): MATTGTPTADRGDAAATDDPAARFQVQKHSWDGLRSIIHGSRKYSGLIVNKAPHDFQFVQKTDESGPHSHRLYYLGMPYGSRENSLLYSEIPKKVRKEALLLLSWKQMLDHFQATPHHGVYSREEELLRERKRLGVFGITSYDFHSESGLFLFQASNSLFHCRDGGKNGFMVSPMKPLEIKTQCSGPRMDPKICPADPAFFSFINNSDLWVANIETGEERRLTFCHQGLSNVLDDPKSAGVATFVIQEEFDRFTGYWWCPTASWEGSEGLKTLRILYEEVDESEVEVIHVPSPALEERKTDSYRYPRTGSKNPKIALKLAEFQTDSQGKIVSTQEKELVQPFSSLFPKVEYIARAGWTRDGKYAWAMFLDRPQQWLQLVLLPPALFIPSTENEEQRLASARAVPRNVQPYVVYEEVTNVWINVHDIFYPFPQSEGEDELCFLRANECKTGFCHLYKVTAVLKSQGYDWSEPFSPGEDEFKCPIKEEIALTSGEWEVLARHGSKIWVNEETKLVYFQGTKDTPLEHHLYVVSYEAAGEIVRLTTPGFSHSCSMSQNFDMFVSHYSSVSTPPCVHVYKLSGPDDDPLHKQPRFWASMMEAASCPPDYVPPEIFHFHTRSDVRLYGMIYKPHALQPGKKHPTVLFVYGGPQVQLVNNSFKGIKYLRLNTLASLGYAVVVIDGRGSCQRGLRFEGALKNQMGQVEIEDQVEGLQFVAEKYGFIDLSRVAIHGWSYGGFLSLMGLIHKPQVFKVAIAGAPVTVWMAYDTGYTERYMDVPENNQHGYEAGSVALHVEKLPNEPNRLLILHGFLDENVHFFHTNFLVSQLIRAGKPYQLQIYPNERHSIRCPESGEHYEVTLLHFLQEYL
Chain of DPP8 (Q6V1X1 whole entry, species assumed): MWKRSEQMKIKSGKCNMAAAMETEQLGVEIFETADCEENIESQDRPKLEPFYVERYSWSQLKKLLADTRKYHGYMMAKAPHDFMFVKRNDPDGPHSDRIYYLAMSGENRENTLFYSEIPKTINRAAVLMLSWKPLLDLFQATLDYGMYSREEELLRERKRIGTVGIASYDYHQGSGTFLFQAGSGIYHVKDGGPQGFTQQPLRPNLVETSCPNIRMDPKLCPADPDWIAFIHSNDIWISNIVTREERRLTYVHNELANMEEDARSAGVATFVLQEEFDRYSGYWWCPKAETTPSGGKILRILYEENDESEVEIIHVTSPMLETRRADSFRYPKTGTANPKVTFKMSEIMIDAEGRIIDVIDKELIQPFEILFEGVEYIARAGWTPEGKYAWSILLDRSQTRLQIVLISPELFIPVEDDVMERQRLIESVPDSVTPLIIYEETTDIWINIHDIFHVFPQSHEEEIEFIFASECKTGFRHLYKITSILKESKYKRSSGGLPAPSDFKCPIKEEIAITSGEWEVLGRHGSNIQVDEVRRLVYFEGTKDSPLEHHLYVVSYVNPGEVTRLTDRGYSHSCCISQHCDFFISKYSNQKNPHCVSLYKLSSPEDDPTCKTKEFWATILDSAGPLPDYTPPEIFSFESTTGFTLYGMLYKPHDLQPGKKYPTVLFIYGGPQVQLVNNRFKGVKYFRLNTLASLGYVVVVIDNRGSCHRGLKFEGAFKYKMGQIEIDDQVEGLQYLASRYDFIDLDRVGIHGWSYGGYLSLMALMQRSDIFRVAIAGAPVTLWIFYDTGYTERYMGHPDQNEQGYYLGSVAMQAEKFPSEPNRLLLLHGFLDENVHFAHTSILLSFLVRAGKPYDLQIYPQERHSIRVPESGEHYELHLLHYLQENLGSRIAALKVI

IC50 (DPPIV): 0.86 µM
IC50 (PREP [1]): 0.015 µM
IC50 (DPP9): 2.6 µM
IC50 (FAP [2]): 0.11 µM
IC50 (DPPII): 24 µM
IC50 (DPP8): 7.3 µM
Structure (SMILES): CC(C)[C@H](NC(=O)OCc1ccc(NC(=O)[C@@H]2CC(F)(F)CN2C(=O)CNC(=O)c2ccnc3ccccc23)cc1)C(=O)N1CCC[C@H]1B(O)O [Compound 5181]

Structure (SMILES): COc1cccc2c1C(=O)c1c(O)c3c(c(O)c1C2=O)C[C@@](O)(C(=O)CO)C[C@@H]3O[C@H]1C[C@H](NC(=O)[C@@H]2CCCN2C(=O)CNC(=O)OCc2ccccc2)[C@H](O)[C@H](C)O1 [z-GP-DOX, reference compound]
doxorubicin released in mouse muscle lysate [3]: released a large amount of doxorubicin
doxorubicin released by DPP IV [4]: essentially none by DPP IV
doxorubicin released by FAP (FAP [5]): A similar amount of doxorubicin was released from z-GP-DOX by FAP and PREP
doxorubicin released by PREP (PREP [6]): A similar amount of doxorubicin was released from z-GP-DOX by FAP and PREP

Km (FAP [8]; assay 6, [FAP] 4.00 × 10^−9M): 11.1 µM
Vmax (FAP [8]; assay 6, [FAP] 4.00 × 10^−9M): 5.19e-09 M/s
kcat(Vmax/[E]) (FAP [8]; assay 6, [FAP] 4.00 × 10^−9M): Kcat(Vmax/[E]) 1.30 sec^−1
Kcat (FAP [8]; assay 7, [FAP] 1 nM): Kcat 0.98 sec^−1
Km (FAP [8]; assay 7, [FAP] 1 nM): 4.85 µM
Vmax (FAP [8]; assay 7, [FAP] 1 nM, Dox standards, Daunorubicin internal standard): Vmax 9.80 × 10^−9M/sec
Structure (SMILES): COc1cccc2c1C(=O)c1c(O)c3c(c(O)c1C2=O)C[C@@](O)(C(=O)CO)C[C@@H]3O[C@H]1C[C@H](NC(=O)[C@@H]2CC(F)(F)CN2C(=O)CNC(=O)c2ccnc3ccccc23)[C@H](O)[C@H](C)O1 [Compound 5057DOX]
activation by FAP as compared to PREP (FAP [7]): selectively activated by FAP as compared to PREP

Structure (SMILES): COc1cccc2c1C(=O)c1c(O)c3c(c(O)c1C2=O)C[C@@](O)(C(=O)CO)C[C@@H]3O[C@H]1C[C@H](NC(=O)[C@@H]2CCCN2C(=O)[C@@H](C)NC(=O)c2ccncc2)[C@H](O)[C@H](C)O1 [Compound 3099DOX]
doxorubicin released in mouse muscle lysate [3]: released essentially no doxorubicin
doxorubicin released by FAP (FAP [5]): released from 3099DOX by FAP
activation with PREP (PREP [9]): essentially no activation with PREP
doxorubicin released by PREP (PREP [6]): neither PREP nor DPP IV
time to reach maximum free doxorubicin (FAP [10]): approximately 8 h
Km (FAP [11]): 11.2 µM
kcat(Vmax/[E]) (FAP [11]): 0.44 s⁻¹
Vmax (FAP [11]; released doxorubicin): 5.877e-09 M/s
Remaining Purity % ([12]; 22° C./72% RH, 1 month): 99.5%
Remaining Purity % ([12]; 22° C./72% RH, 1 week): 99.3%
Remaining Purity % ([12]; 22° C./72% RH, 2 month): 98.1%
Remaining Purity % ([12]; 22° C./72% RH, 3 month): 97.5%
Remaining Purity % ([12]; 22° C./72% RH, Day 0): 99.4%
Remaining Purity % ([12]; 40° C./75% RH, 1 month): 98.8%
Remaining Purity % ([12]; 40° C./75% RH, 1 week): 99.3%
Remaining Purity % ([12]; 40° C./75% RH, 2 month): 96.3%
Remaining Purity % ([12]; 40° C./75% RH, 3 month): 95.3%
Remaining Purity % ([12]; 40° C./75% RH, Day 0): 99.4%
